According to PMC7717600, “Novel [(N-alkyl-3-indolylmethylene)hydrazono]oxindoles arrest cell cycle and induce cell apoptosis by inhibiting CDK2 and Bcl-2: synthesis, biological evaluation and in silico studies” (Journal of Enzyme Inhibition and Medicinal Chemistry, 2020):
Where two headings read alike, the source gives them in different places.

Assays:
NCI-H460 = assay: NCI SRB screening; type: cell-based, human
MDA-MB-231 = assay: SRB anti-proliferative assay; type: cell-based; settings: Homo sapiens; MDA-MB-231, SRB, mean ± SE of 3
HCT-116 = assay: SRB anti-proliferative assay; type: cell-based; settings: Homo sapiens; HCT-116, SRB, mean ± SE of 3
HOP-92 = settings: for TGI: HOP-92
A-549 = assay: SRB anti-proliferative assay; type: cell-based; settings: Homo sapiens, A549; A-549, SRB, mean ± SE of 3
SNB-19 = settings: for TGI: SNB-19
SK-MEL-5 = settings: for TGI: SK-MEL-5
SF-268 = settings: for TGI: SF-268
OVCAR-8 = settings: for TGI: OVCAR-8
SW-620 = settings: for TGI: SW-620
SK-MEL-28 = settings: for TGI: SK-MEL-28
TK-10 = settings: for TGI: TK-10
786-0 = settings: for TGI: 786-0
SK-MEL-2 = settings: for TGI: SK-MEL-2
M14 = assay: NCI SRB screening; type: cell-based

Structure (SMILES): CCCn1cc(C=NN=C2C(=O)Nc3ccc(C)cc32)c2ccccc21 [Compound 8a]
- GI % (MDA-MB-231/ATCC; MDA-MB-231, 10 μM): 66%
- TGI (MDA-MB-231/ATCC; MDA-MB-231/ATCC): 7.40 µM
- Growth Percent (MDA-MB-231/ATCC; MDA-MB-231/ATCC, 1.00E-5 Molar): 34.35%
- TGI (MDA-MB-231/ATCC; MDA-MB-231/ATCC, listed as D - 795311 / 1): 7.40E-6 Molar
- GI50 (T-47D): 0.41 µM
- TGI (T-47D): 18.40 µM
- GI % (T-47D; 10 μM): 61%
- Growth Percent (T-47D; 1.00E-5 Molar): 39.59%
- TGI (T-47D; listed as D - 795311 / 1): 1.84E-5 Molar
- TGI (MALME-3M): 6.03 µM
- GI % (MALME-3M; 10 μM): 49%
- Growth Percent (MALME-3M; 1.00E-5 Molar): 51.68%
- TGI (MALME-3M; listed as D - 795311 / 1): 6.03E-6 Molar
- TGI (A549/ATCC): 39.6 µM
- GI % (A549/ATCC; 10 μM): 36%
- Growth Percent (A549/ATCC; 1.00E-5 Molar): 63.93%
- TGI (A549/ATCC; listed as D - 795311 / 1): 3.96E-5 Molar
- TGI (EKVX): >100 µM
- GI % (EKVX; 10 μM): 50%
- Growth Percent (EKVX; 1.00E-5 Molar): 50.45%
- TGI (EKVX; listed as D - 795311 / 1): > 1.00E-4 Molar
- GI50 (NCI-H460; Homo sapiens, NCI-H460): 2.17 µM
- TGI (NCI-H460; NCI-H460): 10.6 µM
- GI % (NCI-H460; NCI-H460, 10 μM): 68%
- Growth Percent (NCI-H460; NCI-H460, 1.00E-5 Molar): 32.08%
- TGI (NCI-H460; NCI-H460, listed as D - 795311 / 1): 1.06E-5 Molar
- IC50 (MDA-MB-231): 4.7 ± 0.28 µM
- IC50 (HCT-116): 2.6 ± 0.17 µM
- TGI (HOP-92): 6.57 µM
- GI % (HOP-92; HOP-92, 10 μM): 63%
- Growth Percent (HOP-92; HOP-92, 1.00E-5 Molar): 37.42%
- TGI (HOP-92; listed as D - 795311 / 1): 6.57E-6 Molar
- IC50 (A-549): 7.3 ± 0.42 µM
- TGI (SNB-19): >100 µM
- GI % (SNB-19; SNB-19, 10 μM): 37%
- Growth Percent (SNB-19; SNB-19, 1.00E-5 Molar): 63.34%
- TGI (SNB-19; listed as D - 795311 / 1): > 1.00E-4 Molar
- GI50 (MOLT-4; MOLT-4): 0.68 µM
- TGI (MOLT-4; MOLT-4): 4.54 µM
- GI % (MOLT-4; MOLT-4, 10 μM): 110%
- Growth Percent (MOLT-4; MOLT-4, 1.00E-5 Molar): -9.90%
- TGI (MOLT-4; MOLT-4, listed as D - 795311 / 1): 4.54E-6 Molar
- GI % (UO-31; UO-31, 10 μM): 40%
- Growth Percent (UO-31; UO-31, 1.00E-5 Molar): 60.00%
- TGI (UO-31; UO-31, listed as D - 795311 / 1): 6.18E-5 Molar
- TGI (SK-MEL-5): 13.50 µM
- GI % (SK-MEL-5; SK-MEL-5, 10 μM): 51%
- Growth Percent (SK-MEL-5; SK-MEL-5, 1.00E-5 Molar): 49.07%
- TGI (SK-MEL-5; listed as D - 795311 / 1): 1.35E-5 Molar
- CC50 (SK-MEL-5; human, 48 h): 39 µM
- TGI (SF-268): 28.0 µM
- GI % (SF-268; SF-268, 10 μM): 54%
- Growth Percent (SF-268; SF-268, 1.00E-5 Molar): 46.59%
- TGI (SF-268; listed as D - 795311 / 1): 2.80E-5 Molar
- TGI (OVCAR-8): >100 µM
- GI % (OVCAR-8; OVCAR-8, 10 μM): 53%
- Growth Percent (OVCAR-8; OVCAR-8, 1.00E-5 Molar): 47.49%
- TGI (OVCAR-8; listed as D - 795311 / 1): > 1.00E-4 Molar
- TGI (SW-620): 35.3 µM
- GI % (SW-620; SW-620, 10 μM): 64%
- Growth Percent (SW-620; SW-620, 1.00E-5 Molar): 36.69%
- TGI (SW-620; listed as D - 795311 / 1): 3.53E-5 Molar
- TGI (SK-MEL-28): 36.9 µM
- GI % (SK-MEL-28; SK-MEL-28, 10 μM): 41%
- Growth Percent (SK-MEL-28; SK-MEL-28, 1.00E-5 Molar): 59.40%
- TGI (SK-MEL-28; listed as D - 795311 / 1): 3.69E-5 Molar
- TGI (TK-10): >100 µM
- GI % (TK-10; TK-10, 10 μM): – (Only GI % higher than 10% are shown)
- Growth Percent (TK-10; TK-10, 1.00E-5 Molar): 106.72%
- TGI (TK-10; listed as D - 795311 / 1): > 1.00E-4 Molar
- TGI (786-0): 71.20 µM
- GI % (786-0; 786-0, 10 μM): 36%
- Growth Percent (786-0; 786-0, 1.00E-5 Molar): 64.53%
- TGI (786-0; listed as D - 795311 / 1): 7.12E-5 Molar
- TGI (SK-MEL-2): 8.03 µM
- GI % (SK-MEL-2; SK-MEL-2, 10 μM): 65%
- Growth Percent (SK-MEL-2; SK-MEL-2, 1.00E-5 Molar): 35.06%
- TGI (SK-MEL-2; listed as D - 795311 / 1): 8.03E-6 Molar
- GI50 (M14; Homo sapiens, M14): 1.92 µM
- TGI (M14; M14): 4.70 µM
- GI % (M14; M14, 10 μM): 44%
- Growth Percent (M14; M14, 1.00E-5 Molar): 56.29%
- TGI (M14; M14, listed as D - 795311 / 1): 4.70E-6 Molar
- TGI (UACC-257; UACC-257): 66.60 µM
- GI % (UACC-257; UACC-257, 10 μM): 41%
- Growth Percent (UACC-257; UACC-257, 1.00E-5 Molar): 58.80%
